Source: US11174242B2, “Heteroaryl compounds and their use” (Minoryx Therapeutics S.L., priority 2016, dated 2021)
Residue numbers refer to the chain shown, from its start.

Assays:
[1] = biological target: T1, β-glucocerebrosidase, p.L444P mutation (GM08760A fibroblasts) (Homo sapiens, UniProt P04062, L483P); experiment: Enhancement of β-glucocerebrosidase activity measured in Gaucher disease fibroblasts (L444P); type: cell-based; conditions: increase in enzyme activity vs non-treated cells, GBA fibroblasts bearing L444P
T1 construct: host or cells: human Gaucher patient fibroblasts GM08760A, homozygous L444P
T1 sequence (P04062 40-536 L483P): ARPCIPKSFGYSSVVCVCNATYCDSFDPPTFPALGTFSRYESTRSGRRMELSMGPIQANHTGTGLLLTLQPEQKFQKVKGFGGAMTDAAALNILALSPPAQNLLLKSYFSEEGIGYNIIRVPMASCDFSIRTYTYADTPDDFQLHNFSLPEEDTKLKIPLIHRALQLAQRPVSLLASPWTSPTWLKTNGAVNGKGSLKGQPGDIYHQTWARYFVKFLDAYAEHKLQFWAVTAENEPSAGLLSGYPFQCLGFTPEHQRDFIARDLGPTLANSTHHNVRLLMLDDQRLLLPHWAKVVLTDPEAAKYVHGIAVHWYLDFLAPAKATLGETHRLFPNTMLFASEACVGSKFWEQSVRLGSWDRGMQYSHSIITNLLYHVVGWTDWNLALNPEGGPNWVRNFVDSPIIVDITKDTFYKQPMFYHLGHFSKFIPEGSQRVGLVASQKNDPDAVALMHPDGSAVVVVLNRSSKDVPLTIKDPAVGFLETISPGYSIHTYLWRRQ
Method: Enhancement of β-Glucocerebrosidase Activity Measured in Gaucher Disease Fibroblasts Materials
Human fibroblasts from a patient with Gaucher disease homozygous for p.L444P mutation (GM08760A) were purchased from Coriell Institute for Medical Research (Camden, N.J., USA).
(§1) Fibroblasts were seeded at 5×10^3 cells per well in 96-well cell culture plates (Corning, N.Y., USA) in Dulbecco's Modified Eagle's Media (DMEM) supplemented with 10% of fetal bovine serum (FBS), 1% penicillin/streptomycin (P/S) (Thermo Fisher Scientific, Waltham, Mass., USA) and grown at 37° C., 5% CO2 overnight for cell attachment. Subsequently, cells were incubated in the absence or presence of the compounds at the desired concentration for 4 days. After incubation, cells were washed twice with phosphate-buffered saline (PBS) and enzyme activity assay was performed.
(§2) β-glucocerebrosidase activity in intact cultured cells was measured by using 4-methylumbelliferyl-β-D-glucopyranoside substrate (Apollo Scientific, UK). Briefly, cells were incubated with 4-MU-β-D-glucopyranoside in 0.1 M acetate buffer pH=4 at 37° C. for 1 hour. […] The liberated 4-MU was measured on a GloMax Discover plate reader (Promega, Madison, Wis., USA) with and excitation at 340 nm and emission at 460 nm. Enzyme activities were expressed in treated cells as X-fold increase in comparison with non-treated cells (X=1 represents no enhancement).
The capacity of the compounds of the disclosure to produce an increase in enzyme activity in GBA fibroblasts bearing L444P at concentrations between 6 and 50 μM is denoted as follows:
(§3) The following compounds listed in Table 2 were purchased (from Enamine, Princeton, Asinex, Vistas-M, and OSSK_541352) and tested in the assay as described above.

[2] = biological target: T2, β-glucocerebrosidase Wild Type (WT) (Homo sapiens, UniProt P04062); experiment: β-glucocerebrosidase activity enhancement, Wild Type (WT); type: cell-based; conditions: increase in enzyme activity vs non-treated cells; for Activity WT: commercially available compounds
T2 construct: endogenous in cells
T2 sequence (P04062 40-536): T1 sequence (P04062 40-536 L483P) with P444L
Method: as §1, §2, §3

[3] = concentrations between 6 and 50 μM, 4 days incubation
[4] = commercially available compounds, 6-50 μM, 4 days

| Compound | Activity L444P [1, 3] | Activity Wild Type (WT) [2] | Activity L444P [1, 4] | Activity WT [2] |
| --- | --- | --- | --- | --- |
| CN(Cc1ccccc1)Cc1nc(N)nc(Nc2ccc(Br)cc2)n1 [Example 5, 6-((Benzyl(methyl)amino)methyl)-N^2-(4-bromophenyl)-1,3,5-triazine-2,4-diamine] | C (Increase in comparison with non-treated of 1.2-1.7 fold is shown as C) | C (Increase in comparison with non-treated of 1.2-1.7 fold is shown as C) |  |  |
| Cc1cccc(Nc2cc(N)nc(CN(C)Cc3ccccc3)n2)c1 [Example 64, 2-((Benzyl(methyl)amino)methyl)-N^4-m-tolylpyrimidine-4,6-diamine] | B (Increase in comparison with non-treated of >1.7-2.0 fold is shown as B) | B (Increase in comparison with non-treated of >1.7-2.0 fold is shown as B) |  |  |
| Cc1ccc(Nc2nc(N)nc(CN3CCN(Cc4ccc5c(c4)OCO5)CC3)n2)cc1 [6-((4-(benzo[d][1,3]dioxo1-5-ylmethyl)piperazin-1-yl)methyl)-N2-(p-tolyl)-1,3,5-triazine-2,4-diamine] |  |  | C (Increase in comparison with non-treated of 1.2-1.7 fold is shown as C) | B (Increase in comparison with non-treated of >1.7-2.0 fold is shown as B) |
| COc1ccc(OC)c(Nc2cc(CN(C)Cc3ccccc3)nc(N)n2)c1 [Example 41, 6-((Benzyl(methyl)amino)methyl)-N^4-(2,5-dimethoxyphenyl)pyrimidine-2,4-diamine] | B (Increase in comparison with non-treated of >1.7-2.0 fold is shown as B) | C (Increase in comparison with non-treated of 1.2-1.7 fold is shown as C) |  |  |
| COc1ccc(CN(C)Cc2cc(Nc3cccc(C)c3)nc(N)n2)cc1 [Example 47, 6-(((4-Methoxybenzyl)(methyl)amino)methyl)-N^4-m-tolylpyrimidine-2,4-diamine] | C (Increase in comparison with non-treated of 1.2-1.7 fold is shown as C) | C (Increase in comparison with non-treated of 1.2-1.7 fold is shown as C) |  |  |
| CN(Cc1ccccc1)Cc1nc(N)nc(Nc2cccc(C#N)c2)n1 [Example 12, 3-(4-Amino-6-((benzyl(methyl)amino)methyl)-1,3,5-triazin-2-ylamino)benzonitrile] | C (Increase in comparison with non-treated of 1.2-1.7 fold is shown as C) | B (Increase in comparison with non-treated of >1.7-2.0 fold is shown as B) |  |  |
| Nc1nc(CN2Cc3ccccc3C2)nc(Nc2ccc(F)cc2)n1 [N2-(4-fluorophenyl)-6-(isoindolin-2-ylmethyl)-1,3,5-triazine-2,4-diamine] |  |  | B (Increase in comparison with non-treated of >1.7-2.0 fold is shown as B) | C (Increase in comparison with non-treated of 1.2-1.7 fold is shown as C) |
| CN(Cc1ccccc1)Cc1cc(Nc2ccc3cnccc3c2)nc(N)n1 [Example 31, 6-((Benzyl(methyl)amino)methyl)-N^4-(isoquinolin-6-yl)pyrimidine-2,4-diamine] |  | A (Increase in comparison with non-treated of >2.0 fold is shown as A) |  |  |
| COc1ccccc1Nc1nc(N)nc(CN(C)Cc2ccccc2)n1 [Example 10, 6-((Benzyl (methyl)amino)methyl)-N^2-(2-methoxyphenyl)-1,3,5-triazine-2,4-diamine] | C (Increase in comparison with non-treated of 1.2-1.7 fold is shown as C) | B (Increase in comparison with non-treated of >1.7-2.0 fold is shown as B) |  |  |
| Cc1ccccc1Nc1cc(CN(C)Cc2ccccc2)nc(N)n1 [Example 28, 6-((Benzyl(methyl)amino)methyl)-N^4-o-tolylpyrimidine-2,4-diamine] | B (Increase in comparison with non-treated of >1.7-2.0 fold is shown as B) | B (Increase in comparison with non-treated of >1.7-2.0 fold is shown as B) |  |  |
| COc1cccc(Nc2cc(CN3CCCC3c3ccccc3)nc(N)n2)c1 (centres unmarked) [Example 50] | C (Increase in comparison with non-treated of 1.2-1.7 fold is shown as C) | C (Increase in comparison with non-treated of 1.2-1.7 fold is shown as C) |  |  |
| CCN(Cc1ccccc1)C(C)c1nc(N)nc(Nc2ccccc2)n1 (centres unmarked) [6-(1-(benzyl(ethyl)amino)ethyl)-N2-phenyl-1,3,5-triazine-2,4-diamine] |  |  | B (Increase in comparison with non-treated of >1.7-2.0 fold is shown as B) | B (Increase in comparison with non-treated of >1.7-2.0 fold is shown as B) |
| Cc1ccc(Nc2cc(CN(C)Cc3ccccc3)nc(N)n2)cc1 [Example 52, 6-((Benzyl(methyl)amino)methyl)-N^4-p-tolylpyrimidine-2,4-diamine] | C (Increase in comparison with non-treated of 1.2-1.7 fold is shown as C) | C (Increase in comparison with non-treated of 1.2-1.7 fold is shown as C) |  |  |
| COc1ccc(Nc2nc(N)cc(CN(C)Cc3ccccc3)n2)cc1 [Example 70] | A (Increase in comparison with non-treated of >2.0 fold is shown as A) | B (Increase in comparison with non-treated of >1.7-2.0 fold is shown as B) |  |  |
| Cc1ccc(Nc2nc(N)nc(CN3CCc4ccccc4C3)n2)cc1 [6-((3,4-dihydroisoquinolin-2(1H)-yl)methyl)-N2-(p-tolyl)-1,3,5-triazine-2,4-diamine] |  |  | B (Increase in comparison with non-treated of >1.7-2.0 fold is shown as B) | B (Increase in comparison with non-treated of >1.7-2.0 fold is shown as B) |
| Cc1ccc(Nc2nc(N)nc(CNC3CCc4ccccc4C3)n2)cc1 (centres unmarked) [Example 27, 6-(((1,2,3,4-Tetrahydronaphthalen-2-yl)amino)methyl)-N-(p-tolyl)-1,3,5-triazine-2,4-diamine] | C (Increase in comparison with non-treated of 1.2-1.7 fold is shown as C) |  |  |  |
| COc1cccc(N2CCN(Cc3nc(N)nc(Nc4ccc(C)cc4)n3)CC2)c1 [6-((4-(3-methoxyphenyl)piperazin-1-yl)methyl)-N2-(p-tolyl)-1,3,5-triazine-2,4-diamine] |  |  | C (Increase in comparison with non-treated of 1.2-1.7 fold is shown as C) |  |
| COc1ccc(Nc2cc(N)nc(CN(C)Cc3ccccc3)n2)cc1 [Example 66, 2-((Benzyl(methyl)amino)methyl)-N^4-(4-methoxyphenyl)pyrimidine-4,6-diamine] | B (Increase in comparison with non-treated of >1.7-2.0 fold is shown as B) |  |  |  |
| COc1cccc(Nc2cc(CN(C)c3cccc(OC)c3)nc(N)n2)c1 [Example 51] | C (Increase in comparison with non-treated of 1.2-1.7 fold is shown as C) |  |  |  |
| Cc1ccc(Nc2nc(N)nc(CN(C)CCOc3ccc(Cl)cc3)n2)cc1 [6-(((2-(4-chlorophenoxy)ethyl)(methyl)amino)methyl)-N2-(p-tolyl)-1,3,5-triazine-2,4-diamine] |  |  | C (Increase in comparison with non-treated of 1.2-1.7 fold is shown as C) |  |
| CN(Cc1ccccc1)Cc1nc(N)nc(Nc2ccc(C#N)cc2)n1 [Example 11, 4-(4-Amino-6-((benzyl(methyl)amino)methyl)-1,3,5-triazin-2-ylamino)benzonitrile] | C (Increase in comparison with non-treated of 1.2-1.7 fold is shown as C) |  |  |  |
